Values joined by “and” are separate entries in the source; they are usually repeats but may differ in a detail not shown here. Equal entries are not always repeated.
Key:
[1] = PAMPA test (skin permeability model); conditions: for permeability coefficient log Pe / permeation parameter CA(t)/CD(0) / retention factor R (membrane retention): 70% silicone oil-30% IPM membrane, 7 h incubation, 100 μM in 5% DMSO phosphate buffer pH 7, triplicate mean; for Papp at 7 h, 100 μM: PAMPA, pH 7
Protocol: The study was performed in triplicate and the results are presented as mean values. After the PAMPA tests was performed, a HPLC method was used to measure the concentrations of the investigated corticosteroids: the initial concentration–CD(0) in the starting solution, the residual concentration–CD(t) in the donor compartment (7 h after incubation) and the transferred concentration–CA(t) in the acceptor compartment (7 h after incubation). The assay was performed using the previously described HPLC method with mobile phase modification for determination of standard corticosteroids. The mobile phase modification was introduced to achieve complete separation standard corticosteroids peak from DMSO peak, which was used as cosolvent. DMSO was used as cosolvent with the aim of increasing the corticosteroid C-21 esters’ solubility. DMSO is one of the earliest and most widely studied penetration enhancers for transdermal drug delivery systems.
On the basis of the initial (100 μM) and calculated residual and transferred concentrations according to peak area comparison at zero time t0, the retention factors–R and permeability coefficients–logPe of investigated corticosteroids were obtained.
Phosphate buffer (pH = 7) was prepared by dissolving NaH2PO4·H2O (1.167 g) and Na2HPO4·7H2O (3.093 g) in water (1000 mL) with the fixed total concentration of 20 mM. The 5% DMSO solution were prepared dissolving DMSO in phosphate buffer. The corticosteroid solutions were prepared dissolving the investigated corticosteroid standards as well as new synthesized corticosteroid C-21 esters in 5% DMSO solution. […] An aliquot of previously prepared mixture (3.5 mL, 7 mL silicone oil and 3 mL IPM) was transferred into a 10 mL volumetric flask, dissolved and fill up to mark with n-hexane.
Permeation experiments were carried out in hydrophobic PVDF 96-well filter plates (Millipore, Molsheim, France). […] Next, in each well of acceptor plate, 5% DMSO solution (400 μL) was transferred with an automatic pipette and covered by the donor plate, creating a PAMPA sandwich. In each well of the donor plate solutions of the tested corticosteroid in 5% DMSO solution (100 μM, 300 μL) was transferred by the use of an automatic pipette. Each substance was measured in triplicate at iso-pH conditions (the same pH value in donor and receptor compartment). The donor plate was covered to prevent evaporation and the whole system set up to interact with the vibratory mixer. After 7 h, PAMPA sandwich was removed from the mixer and vibration, and using the HPLC method the concentration of the investigated substances in the donor and receptor compartments were determined. The HPLC method used was as previously described but with some necessary modifications. A mobile phase of methanol–water (75:25 v/v) was used for analysis of corticosteroid C-21 esters, while the mobile phase methanol–water (50:50 v/v) was used for the analysis of unesterified corticosteroids to increase their retention time and prevent overlapping with the DMSO peak. Other HPLC parameters were as previously described. The concentrations of each tested corticosteroid in the appropriate time interval in the donor and acceptor compartments were calculated using the method of comparing the peak area of the initial concentration at zero time t0.
The values of permeability coefficients–logPe and retention factors–R of examined corticosteroids were calculated using equations (2) and (3). The retention factor, R can be defined as the mole fraction retained in the membrane and in the microplates (i.e., filters and plate materials): [drawing 1] (2) where CA(t)/CD(0) represents the amount of compound that reached the acceptor compartment after incubation time t (for VA = VD): […]

[2] = system: croton oil induced mice ear edema; conditions: 4 h after application, at ED50 of FA (28 μM); cited from earlier work
[3] = approximate logKp (permeability coefficient through human skin) calculated from logPe by equation (1); conditions: logKp = 1.34 logPe + 0.28, from PAMPA logPe
From the text: Ottaviani and coworkers predicted skin permeation of numerous compounds applying a new membrane (70% silicone oil and 30% IPM) in the PAMPA test and presented permeate classifications on the basis of available literature permeability coefficients through human skin, logKp.
The proposed equation for correlation between logKp and logPe for 31 investigated compounds was: […]

logKp (approximate, calculated) [3] | Papp at 7 h, 100 μM [1] | permeation parameter CA(t)/CD(0) ([1]; listed as mometasone furoate) | retention factor R (membrane retention) ([1]; listed as mometasone furoate) | Structure (SMILES) | permeability coefficient log Pe [1] | permeation parameter CA(t)/CD(0) [1] | retention factor R (membrane retention) [1] | relative anti-inflammatory activity (reduction of mass edema) in comparison to FA (100%) [2] | permeate classification (groups I-III) from R versus CA(t)/CD(0) ([1]; relationship between retention factors and permeation parameters, Figure 2)
– | – | – | – | CCOC(CC)C(=O)OCC(=O)C12OC(C)(C)OC1CC1C3CC(F)C4=CC(=O)C=CC4(C)C3(F)C(O)CC12C (centres unmarked) [FA-21-EB, fluocinolone acetonide 21-(2′-ethoxybutyrate)] | −4.82 ± 0.10 cm/s | 7.2 ± 0.9% | 72.8 ± 2.6% | 60% | –
– | – | – | – | COC(C)C(=O)OCC(=O)C12OC(C)(C)OC1CC1C3CCC4=CC(=O)C=CC4(C)C3(F)C(O)CC12C (centres unmarked) [TA-21-MP, triamcinolone acetonide 21-(2′-methoxypropionate)] | −4.45 ± 0.16 cm/s | 38.1 ± 1.6% | 13.5 ± 4.1% | – | –
– | – | – | – | CCOC(CC)C(=O)OCC(=O)C12OC(C)(C)OC1CC1C3CCC4=CC(=O)C=CC4(C)C3(F)C(O)CC12C (centres unmarked) [TA-21-EB, triamcinolone acetonide 21-(2′-ethoxybutyrate)] | −4.87 ± 0.21 cm/s | 7.3 ± 1.6% | 70.1 ± 3.4% | – | –
−6.43 | 9.77 ×10⁻⁶ cm/s | – | – | CC1(C)O[C@@H]2C[C@H]3[C@@H]4CCC5=CC(=O)C=C[C@]5(C)[C@@]4(F)[C@@H](O)C[C@]3(C)[C@]2(C(=O)CO)O1 [TA, triamcinolone acetonide, reference compound] | – | 10.8 ± 1.5% | 4.7 ± 2.3% | – | –
– | – | – | – | COC(C)C(=O)OCC(=O)[C@@]12OC(C)(C)O[C@@H]1C[C@H]1[C@@H]3C[C@H](F)C4=CC(=O)C=C[C@]4(C)[C@@]3(F)[C@@H](O)C[C@@]12C (some centres unmarked) [FA-21-MP, fluocinolone acetonide 21-(2′-methoxy-propionate)] | −4.64 ± 0.17 cm/s | 23.1 ± 1.4% | 34.1 ± 3.5% | 108.12% | –
– | – | – | – | CC(Oc1ccccc1)C(=O)OCC(=O)C12OC(C)(C)OC1CC1C3CCC4=CC(=O)C=CC4(C)C3(F)C(O)CC12C (centres unmarked) [TA-21-PhP, triamcinolone acetonide 21-(2′-phenoxypropionate)] | −4.07 ± 0.14 cm/s | 27.1 ± 1.4% | 51.1 ± 3.8% | – | –
– | – | – | – | CC(Oc1ccccc1)C(=O)OCC(=O)C12OC(C)(C)OC1CC1C3CC(F)C4=CC(=O)C=CC4(C)C3(F)C(O)CC12C (centres unmarked) [FA-21-PhP, fluocinolone acetonide 21-(2′-phenoxypropionate)] | −5.68 ± 0.15 cm/s | 1.3 ± 0.6% | 71.9 ± 2.8% | 65% | –
– | – | – | – | CCC(OC)C(=O)OCC(=O)C1(O)C(C)CC2C3CCC4=CC(=O)C=CC4(C)C3(F)C(O)CC21C (centres unmarked) [DEX-21-MB, dexamethasone 21-(2′-methoxybutyrate)] | −4.58 ± 0.15 cm/s | 37.4 ± 1.5% | <1% | – | –
– | – | – | – | CCC(OC)C(=O)OCC(=O)C12OC(C)(C)OC1CC1C3CCC4=CC(=O)C=CC4(C)C3(F)C(O)CC12C (centres unmarked) [TA-21-MB, triamcinolone acetonide 21-(2′-methoxybutyrate)] | −4.85 ± 0.23 cm/s | 16.9 ± 2.0% | 39.3 ± 4.1% | – | –
– | – | – | – | CCOC(C)C(=O)OCC(=O)C12OC(C)(C)OC1CC1C3CCC4=CC(=O)C=CC4(C)C3(F)C(O)CC12C (centres unmarked) [TA-21-EP, triamcinolone acetonide 21-(2′-ethoxypropionate)] | −4.66 ± 0.15 cm/s | 23.0 ± 1.8% | 32.4 ± 1.7% | – | –
– | – | – | – | CCC(OC)C(=O)OCC(=O)C12OC(C)(C)OC1CC1C3CC(F)C4=CC(=O)C=CC4(C)C3(F)C(O)CC12C (centres unmarked) [FA-21-MB, fluocinolone acetonide 21-(2′-methoxybutyrate)] | −4.65 ± 0.12 cm/s | 18.0 ± 1.3% | 47.2 ± 3.4% | – | –
– | – | – | – | CCOC(C)C(=O)OCC(=O)C1(O)C(C)CC2C3CCC4=CC(=O)C=CC4(C)C3(F)C(O)CC21C (centres unmarked) [DEX-21-EP, dexamethasone 21-(2′-ethoxypropionate)] | – | 31.6 ± 0.6% | <1% | – | –
– | – | – | – | C[C@]12CCC(=O)C=C1CC[C@@H]1[C@@H]2[C@@H](O)C[C@@]2(C)[C@H]1CC[C@]2(O)C(=O)CO [H, hydrocortisone, reference compound] | – | – | 1.5 ± 0.9% | – | –
– | – | – | – | COC(C)C(=O)OCC(=O)C1(O)C(C)CC2C3CCC4=CC(=O)C=CC4(C)C3(F)C(O)CC21C (centres unmarked) [DEX-21-MP, dexamethasone 21-(2′-methoxypropionate)] | −4.88 ± 0.17 cm/s | 23.8 ± 1.5% | <1% | – | –
– | – | – | – | CCOC(CC)C(=O)OCC(=O)C1(O)C(C)CC2C3CCC4=CC(=O)C=CC4(C)C3(F)C(O)CC21C (centres unmarked) [DEX-21-EB, dexamethasone 21-(2′-ethoxybutyrate)] | −4.58 ± 0.13 cm/s | 33.4 ± 1.2% | 11.3 ± 3.5% | – | –
−5.21 | 79.4 ×10⁻⁶ cm/s | 7.7% | 81% | C[C@@H]1C[C@H]2[C@@H]3CCC4=CC(=O)C=C[C@]4(C)[C@@]3(Cl)[C@@H](O)C[C@]2(C)[C@@]1(OC(=O)c1ccco1)C(=O)CCl [MF, mometasone furoate, reference compound] | – | 7.7 ± 1.5% | 81.0 ± 2.9% | – | group III (having high membrane retention and low permeation (group III))
−6.51 | 8.51 ×10⁻⁶ cm/s | – | – | CC(=O)OCC(=O)[C@@]1(O)CC[C@H]2[C@@H]3CCC4=CC(=O)CC[C@]4(C)[C@H]3[C@@H](O)C[C@@]21C [H-21-Ac, hydrocortisone acetate, reference compound] | – | 10% and 10.0 ± 1.7% | < 1% | – | –
– | – | – | – | CCOC(C)C(=O)OCC(=O)[C@@]12OC(C)(C)O[C@@H]1C[C@H]1[C@@H]3C[C@H](F)C4=CC(=O)C=C[C@]4(C)[C@@]3(F)[C@@H](O)C[C@@]12C (some centres unmarked) [FA-21-EP, fluocinolone acetonide 21-(2′-ethoxypropionate)] | −4.52 ± 0.19 cm/s | 22.2 ± 1.6% | 45.8 ± 4.1% | less than 10% | –
– | – | – | – | CC(Oc1ccccc1)C(=O)OCC(=O)C1(O)C(C)CC2C3CCC4=CC(=O)C=CC4(C)C3(F)C(O)CC21C (centres unmarked) [DEX-21-PhP, dexamethasone 21-(2′-phenoxypropionate)] | – | 4.1 ± 1.1% | 86.5 ± 4.2% | – | –
−6.77 | 5.5 ×10⁻⁶ cm/s | – | – | CC1(C)O[C@@H]2C[C@H]3[C@@H]4C[C@H](F)C5=CC(=O)C=C[C@]5(C)[C@@]4(F)[C@@H](O)C[C@]3(C)[C@]2(C(=O)CO)O1 [FA, fluocinolone acetonide, reference compound] | – | 6.7 ± 1.2% | <1% | 100% | –
